Reference: publication PMC6451745, “Development and dosimetry of ^203Pb/^212Pb-labelled PSMA ligands: bringing “the lead” into PSMA-targeted alpha therapy?” (European Journal of Nuclear Medicine and Molecular Imaging, 2019)
Where two headings read alike, the source gives them in different places.

How the values were obtained:
[1] = design: method as in PMID 28891033; settings: projected treatment activity 1 GBq; cited from earlier work
C4-2 tumour-bearing mice [2] = assay: Planar scintigraphic imaging in tumour-bearing mice; type: in vivo; settings: ^203Pb-labelled; for tumour uptake in mice (planar scintigraphy): 1 h after injection, Fig. 3
Method: (§1) The in vivo experiments were carried out in accordance with the laws on animal welfare of the Federal Republic of Germany. For imaging and biodistribution studies, male BALB/c nu/nu mice (20–25 g; Charles River) bearing C4-2 tumour xenografts were used. The mice were inoculated subcutaneously in the right trunk with 5 × 10^6 C4-2 cells in 50% Matrigel in Opti-MEM (1×). For small-animal imaging the mice were anaesthetized with 2% sevoflurane, and then 0.1 nmol (1.0 MBq) of the respective ^203Pb ligand was injected into a tail vein. Serial planar scans were performed using a Gamma Imager-sct (Biospace Lab, Paris, France) with a parallel collimator (35 mm/1.8 mm/0.2 mm) after 10 min, 1 h, 4 h and 24 h. Based on the imaging results, compound CA012 was chosen for biodistribution studies. Experiments were performed in triplicate. For biodistribution, 0.025 nmol (1 MBq) of labelled compound per mouse was administered by injection into a tail vein. After 10 min, 1 h, 4 h and 24 h the mice were killed, the organs were dissected and weighed, and activity was measured using a gamma counter (Packard Cobra Auto-gamma). The organ uptakes were calculated as the percentage of the injected dose per gram of tissue (%ID/g).

PSMA [3] = molecular target: T1, PSMA (Homo sapiens, UniProt Q04609); assay: Competitive binding assay on C4-2 cells; settings: reference ^68Ga-labelled PSMA-HBED-CC dimer (PSMA-10), mean ± SD
T1 construct: host or cells: C4-2 cells (LNCaP subline)
Method: (§2) In vitro and in vivo experiments were performed using the PSMA-positive C4-2 cell line, a subline of the LNCaP (lymph node carcinoma of the prostate) cell line (CRL-3314; American Type Culture Collection). C4-2 cells were cultivated in RPMI-1640 (PAN Biotech) supplemented with 10% fetal calf serum and stable glutamine (PAN Biotech). Cells were grown at 37 °C and incubated in humidified air equilibrated with 5% CO2.
A MultiScreenHTS-DV filter plate was incubated at room temperature with 100 μl phosphate-buffered saline (PBS) containing 1% bovine serum albumin (BSA) per well for 30 min. After removal of the PBS/BSA solution, 1 × 10^5 C4-2 cells in Opti-MEM were added to each well. All nonlabelled compounds were dissolved in 300 μl Opti-MEM at the following concentrations: 0, 0.5, 1, 2.5, 5, 10, 25, 50, 100, 500, 1,000 and 5,000 nM. Subsequently, 3 μl of the radiolabelled compound was added, and 50 μl of this mixture was taken to obtain a solution containing 0.75 nM of the radiolabelled ligand. After 45 min incubation at 37 °C, the cells were washed twice with PBS, the radioactivity accumulated in the cells was collected, and the remaining radioactivity was measured in a gamma counter. The inhibitory potency was determined using ^68Ga-labelled PSMA-HBED-CC dimer (i.e. PSMA-10) as the reference. The 50% inhibitory concentration was calculated using a nonlinear regression algorithm (GraphPad Prism 5.01 software). The experiments were performed in quadruplicate.

[4] = Stability of ^203Pb-labelled compounds in human serum; type: in vitro ADME; settings: 37 °C, up to 72 h, radio-HPLC
Method: The conjugates (1 mM in water, 80 μl, 80 nmol) were added to 400 μl sodium acetate buffer (0.4 M in water, pH 5.0), 10 μl ascorbic acid (20% in water) and 140 μl ^203Pb-chloride solution in 0.04 M HCl, with specific activity approximately 102.6 TBq/g (Lantheus Medical Imaging, North Billerica, MA, USA). The mixture was then heated at 95 °C for 5 min. Labelling was controlled by radio-HPLC. The stability of the ^203Pb-labelled compounds was evaluated in 300 μl human serum at 37 °C for up to 72 h. After precipitation of the serum proteins by addition of two parts acetonitrile, the solution was centrifuged for 5 min at 13,000 rpm (twice) and the supernatant was analysed by radio-HPLC (0–100% MeCN over 5 min, monolith column).

C4-2 tumour-bearing mice [5] = assay: Biodistribution (organ distribution) in tumour-bearing mice; type: in vivo; settings: for Organ distribution, Kidneys: 0.025 nmol i.v., n = 3
Method: as §1

C4-2 cells = assay: Determination of specific internalization ratio; type: cell-based; settings: for Specific cell surface / Specific lysate (specific internalization): ^203Pb-labelled compound 30 nM, 45 min, 2-PMPA blocking subtracted, mean ± SD n = 3
Method: as §2
For determination of the specific internalization ratio, 24-well plates were incubated for 20 min with 0.1% poly-L-lysine in PBS at room temperature and washed once with PBS. In the next step, 1 ml RPMI containing 1 × 10^5 C4-2 cells was added to each well and incubated overnight. The conditions during the experiment for each compound were: incubation at 37 °C or 4 °C with or without receptor blocking via 2-(phosphonomethyl)pentanedioic acid (2-PMPA; Axxora) at a final concentration of 500 μM. The cells were then incubated with 250 μl of a 30 nM solution of ^203Pb-labelled compound. The plates were incubated either for 45 min in a water bath at 37 °C or on ice at 4 °C. The cells were then washed three times with 1 ml ice-cold PBS and incubated with 0.5 ml glycine (50 mM in HCl, pH 2.8) for 5 min. After an additional washing step with 1 ml ice-cold PBS, the cells were lysed with 0.5 ml 0.3 M NaOH and collected, and the radioactivity was measured with a gamma counter for 1 min. The specific cellular uptake was determined as the percentage of initially added radioactivity bound per 10^6 cells (%IA/10^6 cells) by subtraction of the respective uptake under blocking conditions. All experiments were performed in triplicate.

[6] = cited from earlier work
PSMA [7] = molecular target: T1, PSMA; design: method as in PMID 25883127; settings: reference compound; cited from earlier work
[8] = design: method as in PMID 10755652, doi:10.1039/C39890000145, doi:10.1021/ja00130a008; settings: cited from earlier work
[9] = design: method as in PMID 25883127; settings: previously determined; cited from earlier work
[10] = design: method as in PMID 28408529; settings: projected treatment activity 6–8 MBq; cited from earlier work

T1 sequence (Q04609 whole entry): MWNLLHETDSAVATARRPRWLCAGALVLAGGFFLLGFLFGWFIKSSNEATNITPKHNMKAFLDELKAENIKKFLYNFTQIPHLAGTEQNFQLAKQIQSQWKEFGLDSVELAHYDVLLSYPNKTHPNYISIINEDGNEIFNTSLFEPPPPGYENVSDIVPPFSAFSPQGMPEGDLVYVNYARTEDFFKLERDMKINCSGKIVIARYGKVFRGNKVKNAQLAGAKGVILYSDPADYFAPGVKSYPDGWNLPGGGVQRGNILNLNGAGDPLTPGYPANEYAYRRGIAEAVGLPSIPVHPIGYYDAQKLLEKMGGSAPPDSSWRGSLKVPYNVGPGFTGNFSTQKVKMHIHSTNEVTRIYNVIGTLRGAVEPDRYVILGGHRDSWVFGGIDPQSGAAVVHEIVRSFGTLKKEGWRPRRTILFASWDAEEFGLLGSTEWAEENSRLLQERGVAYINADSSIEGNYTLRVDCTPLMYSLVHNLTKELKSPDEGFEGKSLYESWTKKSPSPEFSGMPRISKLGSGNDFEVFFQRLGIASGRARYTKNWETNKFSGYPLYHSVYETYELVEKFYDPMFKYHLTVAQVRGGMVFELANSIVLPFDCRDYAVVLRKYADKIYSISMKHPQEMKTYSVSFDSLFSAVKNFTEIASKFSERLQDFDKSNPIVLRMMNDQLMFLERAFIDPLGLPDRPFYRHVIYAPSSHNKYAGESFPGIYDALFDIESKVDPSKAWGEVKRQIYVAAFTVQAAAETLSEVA

SMILES: O=C(O)CC[C@H](NC(=O)N[C@@H](CCCCNC(=O)C(Cc1ccc2ccccc2c1)NC(=O)C1CCC(CNC(=O)CN2CCN(CC(=O)O)CCN(CC(=O)O)CCN(CC(=O)O)CC2)CC1)C(=O)O)C(=O)O.[213Bi+3] (some centres unmarked) [^213Bi-PSMA-617]
- Tissue equivalent dose, Kidneys [1]: 8.1 SvRBE5
- Tissue equivalent dose, Red marrow [1]: 0.5 SvRBE5
- Tissue equivalent dose, Salivary glands [1]: 8.1 SvRBE5

SMILES: NC(=O)CN1CCN(CC(N)=O)CCN(CC(N)=O)C(Cc2ccc(NC(=S)NC(Cc3ccc4ccccc4c3)C(=O)NCCCC[C@H](NC(=O)N[C@@H](CCC(=O)O)C(=O)O)C(=O)O)cc2)CN(CC(N)=O)CC1 (some centres unmarked) [CA008]
- tumour uptake in mice (planar scintigraphy) (C4-2 tumour-bearing mice [2]): low tumour uptake
- Ki (PSMA [3]): 0.0288 ± 0.0034 µM

SMILES: NC(=O)CN1CCN(CC(N)=O)CCN(CC(=O)NC(Cc2ccc3ccccc3c2)C(=O)NCCCC[C@H](NC(=O)N[C@@H](CCC(=O)O)C(=O)O)C(=O)O)CCN(CC(N)=O)CC1 (some centres unmarked) [CA011]
- stability in human serum [4]: high stability
- tumour uptake in mice (planar scintigraphy) (C4-2 tumour-bearing mice [2]): low tumour uptake
- Ki (PSMA [3]): 0.0281 ± 0.0029 µM

SMILES: NC(=O)CN1CCN(CC(N)=O)CCN(CC(=O)NCC2CCC(C(=O)NC(Cc3ccc4ccccc4c3)C(=O)NCCCC[C@H](NC(=O)N[C@@H](CCC(=O)O)C(=O)O)C(=O)O)CC2)CCN(CC(N)=O)CC1 (some centres unmarked) [CA012]
- stability in human serum [4]: high stability
- Organ distribution, Kidneys (C4-2 tumour-bearing mice [5]; C4-2 tumour-bearing mice, 1 h): 5.1 ± 2.5 % ID/g
- Organ distribution, Kidneys (C4-2 tumour-bearing mice [5]; C4-2 tumour-bearing mice, 24 h): 0.9 ± 0.1 % ID/g
- specific uptake in tumours versus other organs (C4-2 tumour-bearing mice [5]; in vivo, C4-2 tumour-bearing mice): higher specific uptake in tumours than in other organs
- kidney accumulation (C4-2 tumour-bearing mice [5]; mice, after 24 h): 2%
- specific ligand-induced internalization (C4-2 cells): 15.6 ± 2.1 %IA/10^6 cells
- Specific cell surface (C4-2 cells): 132.1 ± 4.3 %IA/10^6 cells
- Specific lysate (specific internalization) (C4-2 cells): 15.6 ± 2.1 %IA/10^6 cells
- kidney clearance (comparison) (C4-2 tumour-bearing mice [2]; Fig. 4): faster kidney clearance than CA009
- Ki (PSMA [3]): 0.0243 ± 0.0037 µM

SMILES: O=C(O)CC[C@H](NC(=O)N[C@@H](CCCCNC(=O)[C@H](Cc1ccc2ccccc2c1)NC(=O)[C@H]1CC[C@H](CNC(=O)CN2CCN(CC(=O)O)CCN(CC(=O)O)CCN(CC(=O)O)CC2)CC1)C(=O)O)C(=O)O [PSMA-617]
- kidney accumulation ([6]; mice, after 24 h): 1%
- kidney accumulation ([6]; mouse, in vivo, 1 h): 113.3 ± 24.4 %ID/g
- affinity (in words) (PSMA [7]): single-digit affinity

SMILES: NC(=O)CN1CCN(CC(N)=O)CCN(CC(N)=O)CCN(CC(N)=O)CC1 [TCMC, 1,4,7,10-tetra-(2-carbamoyl-methyl)-cyclododecane]
- pH at which stable complexes with lead(II) are formed [8]: > 2

SMILES: O=C(O)CC[C@H](NC(=O)N[C@@H](CCCCNC(=O)C(Cc1ccc2ccccc2c1)NC(=O)C1CCC(CNC(=O)CN2CCN(CC(=O)O)CCN(CC(=O)O)CCN(CC(=O)O)CC2)CC1)C(=O)O)C(=O)O.[68Ga+3] (some centres unmarked) [^68Ga-PSMA-617]
- tumour uptake ([6]; mice): 8.5 ± 4.1 %ID/g

SMILES: NC(=O)CN1CCN(CC(N)=O)CCN(CC(N)=O)C(Cc2ccc(NC(=S)NCC3CCC(C(=O)NC(Cc4ccc5ccccc5c4)C(=O)NCCCC[C@H](NC(=O)N[C@@H](CCC(=O)O)C(=O)O)C(=O)O)CC3)cc2)CN(CC(N)=O)CC1 (some centres unmarked) [CA009]
- specific ligand-induced internalization (C4-2 cells): 27.4 ± 2.4 %IA/10^6 cells
- Specific cell surface (C4-2 cells): 106.5 ± 2.8 %IA/10^6 cells
- Specific lysate (specific internalization) (C4-2 cells): 27.4 ± 2.4 %IA/10^6 cells
- Ki (PSMA [3]): 0.0153 ± 0.0031 µM

SMILES: O=C([O-])CN1CCN(CC(=O)[O-])CCN(CC(=O)NCC2CCC(C(=O)N[C@@H](Cc3ccc4ccccc4c3)C(=O)NCCCC[C@H](NC(=O)N[C@@H](CCC(=O)O)C(=O)O)C(=O)O)CC2)CCN(CC(=O)[O-])CC1.[177Lu+3] (some centres unmarked) [^177Lu-PSMA-617]
- specific internalization [9]: 18 %ID per 10^6cells

SMILES: O=C([O-])CC[C@H](NC(=O)N[C@@H](CCCCNC(=O)[C@H](Cc1ccc2ccccc2c1)NC(=O)C1CCC(CNC(=O)CN2CCN(CC(=O)[O-])CCN(CC(=O)[O-])CCN(CC(=O)[O-])CC2)CC1)C(=O)[O-])C(=O)[O-].[225Ac].[H+].[H+].[H+] (some centres unmarked) [^225Ac-PSMA-617]
- Tissue equivalent dose, Kidneys [10]: 4.2 SvRBE5
- Tissue equivalent dose, Red marrow [10]: 0.3 SvRBE5
- Tissue equivalent dose, Salivary glands [10]: 13.8 SvRBE5

SMILES: O=C(O)CN1CCN(CC(=O)O)CCN(CC(=O)O)CCN(CC(=O)O)CC1 [DOTA, 1,4,7,10-tetraazacyclododecane-1,4,7,10-tetraacetic acid]
- pH at which stable complexes with lead(II) are formed [8]: > 3.5
